Consider 3 molecules from ChEMBL document CHEMBL1154967, “Bioactive bromophycolides R-U from the Fijian red alga Callophycus serratus” (J Nat Prod, 2010).

In assay [1] the test system is Plasmodium falciparum. Nature of the assay: Antimalarial activity against Plasmodium falciparum assessed as SYBR Green uptake after 48 hrs. The class given is functional, organism-based.
The subject of assay [2] is Staphylococcus aureus. As to the kind of experiment: Antibacterial activity against methicillin resistant Staphylococcus aureus ATCC 33591. The format is functional, organism-based.
Assay [3] concerns Enterococcus faecium. As to the kind of experiment: Antibacterial activity against vancomycin resistant Enterococcus faecium ATCC 700221. The format is functional, organism-based.
For assay [4], the system named is Mycobacterium tuberculosis. Nature of the assay: Antitubercular activity against Mycobacterium tuberculosis […] ATCC 27294 after 4 days by microplate alamar blue assay. The format is functional. The note with it: 96 h.
Assay [5] relates to Candida albicans. As to the kind of experiment: Antifungal activity against amphotericin resistant Candida albicans ATCC 90873 after 12 to 15 hrs by Alamar Blue assay. The class given is functional, organism-based. For orientation: Alamar Blue is a resazurin reagent that responds to reducing activity.

What is called IC50 is the point on the concentration scale where inhibition reaches its midpoint. By MIC is commonly meant the least concentration at which growth counts as inhibited. The low end stands for greater potency, the high end for weaker potency.

≈ marks a conversion by molar mass, not a printed value.

Regarding `C=C1CC[C@H](Br)[C@@]2(C)CC[C@@H]3O[C@@]3(C)CC[C@@H](C(C)(C)Br)OC(=O)c3ccc(O)c(c3)C[C@H]12` [BROMOPHYCOLIDE S], the 50% inhibitory concentration (IC50) in assay [1] was 0.9 µM; in assay [2] it was more than 15 µM; in assay [3] it was 3.8 µM; in assay [5], more than 15 µM. Besides, the MIC in assay [4] came out at 23 µM (≈ 13.4 µg/mL).
Take `C=C(C)[C@@H]1CC[C@]2(C)O[C@H]2CC[C@@]2(C)[C@H](Cc3cc(ccc3O)C(=O)O1)C(=C)CC[C@@H]2Br` [BROMOPHYCOLIDE R]: the IC50 was 1.7 µM in assay [1], more than 15 µM in assay [2], more than 15 µM in assay [3] and more than 15 µM in assay [5]. The molecule further yielded an MIC in assay [4] of more than 50 µM.
As for `CC1=CC[C@H](Br)[C@@]2(C)CC[C@@H](Br)[C@@]3(C)CC[C@H](OC(=O)c4ccc(O)c(c4)C[C@H]12)C(C)(C)O3` [BROMOPHYCOLIDE U], the IC50 in assay [1] was 2.1 µM; in assay [2], 0.9 µM; in assay [3], 0.9 µM; in assay [5], more than 15 µM. Also, in assay [4], the MIC came to 22 µM (≈ 12.9 µg/mL).
